From patent publication US12479791B2, “Cationic lipid” (Takeda Pharmaceutical Company Limited, priority 2018, dated 2025) come the findings set out here.

Each structure is given as a SMILES string.

The subject of series [1] is FVII gene. Kind of series: Hepatic FVII gene knockdown in CCl4 hepatic fibrosis mouse model. Conditions: male Balb/c mouse, Col1a1 siRNA + FVII siRNA 0.1 + 0.1 mg/kg intravenous, liver 4 days after administration, qPCR normalized with GAPDH. Format: in vivo. The procedure:
(§1) The Col1a1 siRNA-encapsulated lipid nanoparticle was administered at 0.1 mg/kg into the orbital plexus of the vein of each 8-week-old male Balb/c mouse. 3 hours later, CCl4 mixed with corn oil was orally administered at a dose of 0.1 mL/kg (10 mL/kg) by forced single-dose administration (n=6 in each group). 4 days after the administration of the siRNA-encapsulated lipid nanoparticle, the liver was collected from the mouse euthanized under anesthesia, followed by gene expression analysis by quantitative PCR. The Col1a1 gene expression level and the FVII gene expression level were normalized with the expression level of GAPDH. The amount of decrease in Col1a1 gene expression as compared with a siRNA non-administration group was regarded as the rate of knockdown. In mice intravenously given the siRNA-encapsulated lipid nanoparticle formed using the compound of the present invention, the knockdown of the activated stellate cell marker gene Col1a1 gene was strongly observed, as compared with the rate of knockdown of the hepatic parenchymal cell marker gene FVII.
On the technique in general: Real-time PCR tracks product formation cycle by cycle.

In series [2] the test system is Col1a1 gene. Kind of series: Hepatic collagen 1a1 gene knockdown in CCl4 hepatic fibrosis mouse model. Format: in vivo. As to conditions: male Balb/c mouse, Col1a1 siRNA + FVII siRNA 0.1 + 0.1 mg/kg intravenous, liver 4 days after administration, qPCR normalized with GAPDH, vs siRNA non-administration group. How it is done:
as §1

Series [3] relates to human colorectal cancer-derived cell line HCT116. Kind of series: Transfection of cultured cell with mRNA (luciferase luminescence). Format: cell-based. Conditions: 10 ng luciferase mRNA, 24 hours. How it is done:
A human colorectal cancer-derived cell line HCT116 was cultured at a cell density of 6000 cells/well in a 96-well plate. 24 hours later, 10 μl of the lipid particle containing 10 ng of luciferase mRNA was added to the medium. 24 hours after the addition of mRNA, a reagent of Picagene LT2.0 kit (Toyobo Co., Ltd.) was added to the culture plate of HCT116. The luminescence (count per sec (cps)) of luciferase was measured using a luminescence plate reader EnVision (PerkinElmer, Inc.).

The nature of series [4]: Analysis of Col1a1 siRNA + FVII siRNA-encapsulated lipid nanoparticle (Production Example 3). Format: physicochemical. Conditions: for Rate of encapsulation / Particle size: Col1a1 siRNA + FVII siRNA lipid nanoparticle; for Particle size: cationic lipid:DPPC:cholesterol:GS-020=60:10.6:28:1.4; for Col1a1 siRNA + FVII siRNA concentration: lipid nanoparticle dispersion after dialysis and filtration. The text has this:
(§2) The particle size of the lipid particle (in the composition) can be measured by a known approach. For example, the particle size can be calculated as a Z-average particle size by the cumulant analysis of an autocorrelation function using a particle size measurement apparatus Zetasizer Nano ZS (Malvern Instruments) based on a dynamic light scattering measurement technique. The particle size (average particle size) of the lipid particle (in the composition) is, for example, 10 to 200 nm, preferably 60 to 170 nm.
(§3) The concentration and rate of encapsulation of the nucleic acid (e.g., siRNA or mRNA) in the composition of the present invention can be measured by a known approach. For example, the nucleic acid is fluorescently labeled using Quant-iT™ RiboGreen® (Invitrogen Corp.), and the fluorescence intensity can be measured to determine the concentration and the rate of encapsulation. The concentration of the nucleic acid in the composition can be calculated using a calibration curve prepared from aqueous nucleic acid solutions having known concentrations. The rate of encapsulation can be calculated on the basis of the difference in fluorescence intensity between the presence and absence of addition of Triton-X 100 (surfactant for disrupting the lipid particle). The concentration of the nucleic acid in the composition refers to the total concentration of a nucleic acid encapsulated in the lipid particle and an unencapsulated nucleic acid. The rate of encapsulation refers to the ratio of the nucleic acid encapsulated in the lipid particle to all nucleic acids in the composition.
A lipid mixture (cationic lipid:DPPC:cholesterol:GS-020=60:10.6:28:1.4, molar ratio) was dissolved in 90% of EtOH and 10% of a 25 mM acetate buffer solution (pH 4.0) to obtain a 7.4 mg/ml lipid solution. siRNA against collagen 1a1 (Col1a1) and siRNA against factor VII (FVII) were dissolved in equal weights in a 25 mM acetate buffer solution (pH 4.0) to obtain a 0.15 mg/ml nucleic acid solution. The sequences of Col1a1 siRNA and FVII siRNA were quoted from Hepatology, […], No. 4, 2015, and Silence, Vol. 1, No. 16, 2010, respectively. The obtained lipid solution and nucleic acid solution were mixed at a flow rate ratio of 1 ml/min:5 ml/min using a microfluidic mixing apparatus NanoAssemblr (Precision NanoSystems Inc.) to obtain a dispersion containing a composition. The obtained dispersion was dialyzed against water at room temperature for 1 hour and against PBS at room temperature for 18 hours using Slyde-A-Lyzer (molecular weight cutoff: 20 K, Thermo Fischer Scientific Inc.). Subsequently, the dialysate was filtered through a 0.2 μm syringe filter (Iwaki) and preserved at 4° C. The siRNA-encapsulated lipid nanoparticle was very favorably formed using the compound of the present invention.

Series [5] can be described thus: Analysis of luciferase mRNA-encapsulated lipid nanoparticle (Production Example 2). Format: physicochemical. As to conditions: for Rate of encapsulation / Average particle size: luciferase mRNA lipid nanoparticle; for mRNA concentration: luciferase mRNA lipid nanoparticle dispersion after dialysis and filtration; for Average particle size: cationic lipid:DPPC:cholesterol:GS-020=60:10.6:28:1.4.
Description: as §2, §3
A lipid mixture (cationic lipid:DPPC:cholesterol:GS-020=60:10.6:28:1.4, molar ratio) was dissolved in 90% of EtOH and 10% of water to obtain an 8.5 mg/ml lipid solution. Luciferase mRNA (TriLink BioTechnologies, Inc.) was dissolved in a 10 mM 2-morpholinoethanesulfonic acid (MES) buffer solution (pH 4.0) to obtain a 0.22 mg/ml nucleic acid solution. The obtained lipid solution and nucleic acid solution were mixed at a flow rate ratio of 3 ml/min:6 ml/min at room temperature using NanoAssemblr apparatus (Precision NanoSystems Inc.) to obtain a dispersion containing a composition. The obtained dispersion was dialyzed against water at room temperature for 1 hour and against PBS at 4° C. for 48 hours using Slyde-A-Lyzer (molecular weight cutoff: 20 K, Thermo Fischer Scientific Inc.). Subsequently, the dialysate was filtered through a 0.2 μm syringe filter (Iwaki) and preserved at 4° C.

The nature of series [6]: Analysis of luciferase siRNA-encapsulated lipid nanoparticle (Production Example 1). Format: physicochemical. As to conditions: for Rate of encapsulation / Average particle size: luc siRNA lipid nanoparticle; for siRNA concentration: luc siRNA lipid nanoparticle dispersion after dialysis and filtration; for Average particle size: cationic lipid:DPPC:cholesterol:GS-020=60:10.6:28:1.4, Z-average, dynamic light scattering.
Description: as §2, §3
A lipid mixture (cationic lipid:DPPC:cholesterol:GS-020=60:10.6:28:1.4, molar ratio) was dissolved in 90% of EtOH and 10% of a 25 mM acetate buffer solution (pH 4.0) to obtain a 7.4 mg/ml lipid solution. Luciferase (luc) siRNA (see Table 2) was dissolved in a 25 mM acetate buffer solution (pH 4.0) to obtain a 0.15 mg/ml nucleic acid solution. The obtained lipid solution and nucleic acid solution were mixed at a flow rate ratio of 1 ml/min:5 ml/min at room temperature using Asia microfluidic system (Syrris Ltd.) to obtain a dispersion containing a composition. The obtained dispersion was dialyzed against water at room temperature for 1 hour and against PBS at room temperature for 18 hours using Slyde-A-Lyzer (molecular weight cutoff: 20 K, Thermo Fischer Scientific Inc.). Subsequently, the dialysate was filtered through a 0.2 μm syringe filter (Iwaki) and preserved at 4° C. Hereinafter, the particle size of the lipid particle in the composition was calculated as a Z-average particle size by the cumulant analysis of an autocorrelation function using a particle size measurement apparatus Zetasizer Nano ZS (Malvern Instruments) based on a dynamic light scattering measurement technique.

For series [7], the system named is human liver cancer-derived cell line Hep3B stably expressing luciferase. The series is described as follows: Transfection of cultured cell with siRNA (luciferase knockdown). Format: cell-based. As to conditions: lipid particle containing luciferase siRNA, 48 hours after addition, read-out: siRNA concentration necessary for 50% knockdown. How it is done:
A human liver cancer-derived cell line Hep3B stably expressing luciferase was cultured at a cell density of 6000 cells/well in a 96-well plate. 24 hours later, 10 μl of the lipid particle containing luciferase siRNA was added to the medium. 48 hours after the addition of siRNA, the amount of decrease in expression (knockdown) of luciferase was measured using Picagene LT2.0 kit (Toyobo Co., Ltd.).

Turning to `CCCCCCCC(=O)OCC(COC(=O)CCCCCCC)(COC(=O)CCCCN(C)C)COC(=O)CCC(CCCC)C(CCCC)CCCC` (stereo not drawn) [Example 10, 3-((5-(Dimethylamino)pentanoyl)oxy)-2,2-bis((octanoyloxy)methyl)propyl 4,5-dibutylnonanoate], the “Rate of FVII knockdown” value in series [1] worked out at 0%. Besides, the “Rate of Col1a1 knockdown” value in series [2] turned out to be 77%. In series [3] (Table 8 (PBS control 1293)), the “Average luminescence (cps) of 3 wells” value was found to be 500747 cps. In addition, the “Average luminescence (cps) of 3 wells” value in series [3] (Table 9 (PBS control 80)) was 176813 cps. For the same compound, the “Average luminescence (cps) of 3 wells” value in series [3] (Table 10 (PBS control 293)) is recorded as 112893 cps. For the same compound, in series [4], the Rate of encapsulation came to 97%, the Particle size was determined as 101 nm and the “Col1a1 siRNA + FVII siRNA concentration” value came out at 137 µg/mL. In series [5], this compound had a Rate of encapsulation of 96%, a mRNA concentration of 83 µg/mL and an Average particle size of 123 nm.

As to `CCCCCCC(=O)OCC(COC(=O)CCCN(C)C)(COC(=O)C(CCCCC)CCCCC)COC(=O)C(CCCCC)CCCCC` [Example 4, 2-(((4-(Dimethylamino)butanoyl)oxy)methyl)-2-((heptanoyloxy)methyl)propane-1,3-diyl bis(2-pentylheptanoate)], in series [6], the Rate of encapsulation is 91%, the siRNA concentration was found to be 121 µg/mL and the Average particle size came out at 73 nm. In addition, the IC50 in series [7] came out at 190 nM.

Take `CCCCCCCCCC(=O)OCC(COC(=O)CCCCCCCCC)(COC(=O)CCCCN(C)C)COC(=O)CCC(CCC)C(CCC)CCC` (stereo not drawn) [Example 16, 2-(((5-(Dimethylamino)pentanoyl)oxy)methyl)-2-(((4,5-dipropyloctanoyl)oxy)methyl)propane-1,3-diyl didecanoate]: the “Rate of FVII knockdown” value in series [1] turned out to be 15%. Also, in series [2], the “Rate of Col1a1 knockdown” value was found to be 74%. Further, the “Average luminescence (cps) of 3 wells” value in series [3] (Table 10 (PBS control 293)) is 141560 cps. In addition, in series [4], the Rate of encapsulation was 96%, the Particle size is on record as 103 nm and the “Col1a1 siRNA + FVII siRNA concentration” value worked out at 124 µg/mL. Moreover, in series [5], the Rate of encapsulation is 94%, the mRNA concentration turned out to be 134 µg/mL and the Average particle size is recorded as 109 nm.

As to `CCCCCCCC(=O)OCC(COC(=O)CCCCN(C)C)(COC(=O)C(CCCCCC)CCCCCC)COC(=O)C(CCCCCC)CCCCCC` [Example 7, 2-(((5-(Dimethylamino)pentanoyl)oxy)methyl)-2-((octanoyloxy)methyl)propane-1,3-diyl bis(2-hexyloctanoate)], in series [6], the Rate of encapsulation amounted to 97%, the siRNA concentration turned out to be 376 µg/mL and the Average particle size stood at 73 nm. Moreover, the IC50 in series [7] worked out at 1.2 nM.

Take `CCCCCCCCCC(=O)OCC(COC(=O)CCCCCCCCC)(COC(=O)CCCCN(C)C)COC(=O)CCC(CCCC)C(CCCC)CCCC` (stereo not drawn) [Example 14, 2-(((4,5-Dibutylnonanoyl)oxy)methyl)-2-(((5-(dimethylamino)pentanoyl)oxy)methyl)propane-1,3-diyl didecanoate]: the “Rate of FVII knockdown” value in series [1] is listed as 16%. Moreover, the “Rate of Col1a1 knockdown” value in series [2] was 76%. Also, the “Average luminescence (cps) of 3 wells” value in series [3] (Table 10 (PBS control 293)) is 178133 cps. In series [4], the Rate of encapsulation turned out to be 96%, the Particle size came to 97 nm and the “Col1a1 siRNA + FVII siRNA concentration” value amounted to 126 µg/mL. In series [5], this compound came in with a Rate of encapsulation of 94%, a mRNA concentration of 134 µg/mL and an Average particle size of 88 nm.

In series [6], `CCCCCCCC(=O)OCC(COC(=O)CCCCCCC)(COC(=O)CCCCN(C)C)COC(=O)C(CCCCCC)CCCCCC` [Example 3, 2-(((5-(Dimethylamino)pentanoyl)oxy)methyl)-2-(((2-hexyloctanoyl)oxy)methyl)propane-1,3-diyl dioctanoate] had a Rate of encapsulation of 96%, a siRNA concentration of 445 µg/mL and an Average particle size of 81 nm. In series [7], the IC50 was 55 nM.

In series [6], `CCCCCCCC(=O)OCC(COC(=O)CCCCCCC)(COC(=O)CCCN(C)C)COC(=O)C(CCCCCC)CCCCCC` [Example 2, 2-(((4-(Dimethylamino)butanoyl)oxy)methyl)-2-(((2-hexyloctanoyl)oxy)methyl)propane-1,3-diyl dioctanoate] returned a Rate of encapsulation of 96%, a siRNA concentration of 415 µg/mL and an Average particle size of 71 nm. In series [7], the IC50 was found to be 14 nM.
